The record followed here is paper PMC4106721, “Structure of a Membrane-Embedded Prenyltransferase Homologous to UBIAD1” (PLoS Biology, 2014).

Molecules are shown by their SMILES.

What all share (test): isothermal titration calorimetry
Holding throughout (assay type): binding

Assay [1] has as its target T1, AfUbiA (Archaeoglobus fulgidus, UniProt O28625, D198A).
T1 construct: gene AF_1648; full gene in modified pET vector, N-terminal His-tag removed with TEV protease, expressed in E. coli BL21(DE3), DM-solubilised for ITC or in lipidic cubic phase for crystals; likely monomer

Assay [2] deals with T2, AfUbiA (Archaeoglobus fulgidus, UniProt O28625, D72A).
T2 construct: gene AF_1648; full gene in modified pET vector, N-terminal His-tag removed with TEV protease, expressed in E. coli BL21(DE3), DM-solubilised for ITC or in lipidic cubic phase for crystals; likely monomer
T2 sequence (O28625 entry or part of it D72A): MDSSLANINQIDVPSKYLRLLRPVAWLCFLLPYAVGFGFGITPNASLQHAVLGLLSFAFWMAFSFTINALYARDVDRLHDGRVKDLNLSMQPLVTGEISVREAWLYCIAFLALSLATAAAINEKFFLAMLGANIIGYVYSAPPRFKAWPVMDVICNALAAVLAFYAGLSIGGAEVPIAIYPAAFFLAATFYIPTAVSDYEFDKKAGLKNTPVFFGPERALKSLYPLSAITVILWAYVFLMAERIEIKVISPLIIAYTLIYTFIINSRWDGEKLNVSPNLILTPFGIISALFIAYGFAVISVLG
As to conditions: 2 mM MgCl2, pH 7.5, 25 °C, 4 mM DM.

In assay [3] the target is T3, AfUbiA (Archaeoglobus fulgidus, UniProt O28625).
T3 construct: gene AF_1648; full gene in modified pET vector, N-terminal His-tag removed with TEV protease, expressed in E. coli BL21(DE3), DM-solubilised for ITC or in lipidic cubic phase for crystals; likely monomer
T3 sequence (O28625 1-303): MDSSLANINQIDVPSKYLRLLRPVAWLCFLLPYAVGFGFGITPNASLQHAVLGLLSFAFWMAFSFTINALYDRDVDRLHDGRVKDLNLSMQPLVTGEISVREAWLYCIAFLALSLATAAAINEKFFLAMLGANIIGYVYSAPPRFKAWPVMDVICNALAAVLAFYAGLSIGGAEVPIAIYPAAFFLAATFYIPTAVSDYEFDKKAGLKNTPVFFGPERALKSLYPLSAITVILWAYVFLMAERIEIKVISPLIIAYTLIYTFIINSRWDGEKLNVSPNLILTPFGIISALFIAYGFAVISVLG

Assay [4] has as its target T4, AfUbiA (Archaeoglobus fulgidus, UniProt O28625, D202A).
T4 construct: gene AF_1648; full gene in modified pET vector, N-terminal His-tag removed with TEV protease, expressed in E. coli BL21(DE3), DM-solubilised for ITC or in lipidic cubic phase for crystals; likely monomer

In assay [5] the target is T5, AfUbiA (Archaeoglobus fulgidus, UniProt O28625, N68A).
T5 construct: gene AF_1648; full gene in modified pET vector, N-terminal His-tag removed with TEV protease, expressed in E. coli BL21(DE3), DM-solubilised for ITC or in lipidic cubic phase for crystals; likely monomer
T5 sequence (O28625 entry or part of it N68A): as the sequence (O28625 entry or part of it D72A) above, with N68A, A72D counted along it
As to conditions: 2 mM MgCl2, pH 7.5, 25 °C, 4 mM DM.

Assay [6] deals with T6, AfUbiA (Archaeoglobus fulgidus, UniProt O28625, R22A).
T6 construct: gene AF_1648; full gene in modified pET vector, N-terminal His-tag removed with TEV protease, expressed in E. coli BL21(DE3), DM-solubilised for ITC or in lipidic cubic phase for crystals; likely monomer
T6 sequence (O28625 entry or part of it R22A): as the sequence (O28625 entry or part of it D72A) above, with R22A, A72D counted along it
As to conditions: 2 mM MgCl2, pH 7.5, 25 °C, 4 mM DM.

The target in assay [7] is T7, AfUbiA (Archaeoglobus fulgidus, UniProt O28625, K146A).
T7 construct: gene AF_1648; full gene in modified pET vector, N-terminal His-tag removed with TEV protease, expressed in E. coli BL21(DE3), DM-solubilised for ITC or in lipidic cubic phase for crystals; likely monomer
T7 sequence (O28625 entry or part of it K146A): as the sequence (O28625 entry or part of it D72A) above, with A72D, K146A counted along it
The settings on record: 2 mM MgCl2, pH 7.5, 25 °C, 4 mM DM.

T1 sequence (O28625 entry or part of it D198A): as the sequence (O28625 entry or part of it D72A) above, with A72D, D198A counted along it
T4 sequence (O28625 entry or part of it D202A): as the sequence (O28625 entry or part of it D72A) above, with A72D, D202A counted along it

With `CC(C)=CCC/C(C)=C/COP(=O)(O)OP(=O)(O)O` [geranyl diphosphate], the values for the dissociation constant Kd at AfUbiA [1], on AfUbiA [3] and at AfUbiA [4] were 144 ± 13 µM, 3.2 ± 0.1 µM and 67 ± 9 µM, respectively. For the same compound, the “no binding detected (N.D.)” value on AfUbiA [2], at AfUbiA [5], on AfUbiA [6] and at AfUbiA [7] was “Four of the mutations completely abolished GPP binding” each time.
